Test results as given in ChEMBL document CHEMBL3044576, “Synthesis of promising antimicrobial agents: a novel series of N-(4-(2,6-dichloroquinolin-3-yl)-6-(aryl)pyrimidin-2-yl)-2-morpholinoacetamides” (2013).
Values after ≈ are worked out from the molar mass of the structure shown.

Assays:
Type in all cases: functional
Escherichia coli = test: Antibacterial activity against Escherichia coli MTCC 443 after 24 to 48 hr by serial broth dilution method
Aspergillus niger = test: Antifungal activity against Aspergillus niger MTCC 282 after 72 hr by serial broth dilution method; details: MTCC 282, 72 h
Pseudomonas aeruginosa = test: Antibacterial activity against Pseudomonas aeruginosa MTCC 1688 after 24 to 48 hr by serial broth dilution method
Staphylococcus aureus = test: Antibacterial activity against Staphylococcus aureus MTCC 96 after 24 to 48 hr by serial broth dilution method
Streptococcus pyogenes = test: Antibacterial activity against Streptococcus pyogenes MTCC 442 after 24 to 48 hr by serial broth dilution method
Aspergillus clavatus = test: Antifungal activity against Aspergillus clavatus MTCC 1323 after 72 hr by serial broth dilution method; details: MTCC 1323, 72 h
Candida albicans = test: Antifungal activity against Candida albicans MTCC 227 after 72 hr by serial broth dilution method; details: MTCC 227, 72 h

| Compound | MIC (Escherichia coli) | MIC (Aspergillus niger) | MIC (Pseudomonas aeruginosa) | MIC (Staphylococcus aureus) | MIC (Streptococcus pyogenes) | MIC (Aspergillus clavatus) | MIC (Candida albicans) |
| --- | --- | --- | --- | --- | --- | --- | --- |
| O=C(CN1CCOCC1)Nc1nc(-c2ccccc2)cc(-c2cc3cc(Cl)ccc3nc2Cl)n1 | 500 µg/mL (≈ 1010 µM) | 1000 µg/mL (≈ 2020 µM) | 250 µg/mL (≈ 506 µM) | 1000 µg/mL (≈ 2020 µM) | 1000 µg/mL (≈ 2020 µM) | 1000 µg/mL (≈ 2020 µM) | 1000 µg/mL (≈ 2020 µM) |
| O=C(CN1CCOCC1)Nc1nc(-c2ccccc2O)cc(-c2cc3cc(Cl)ccc3nc2Cl)n1 | 500 µg/mL (≈ 980 µM) | 500 µg/mL (≈ 980 µM) | 250 µg/mL (≈ 490 µM) | 500 µg/mL (≈ 980 µM) | 500 µg/mL (≈ 980 µM) | 500 µg/mL (≈ 980 µM) | 1000 µg/mL (≈ 1960 µM) |
| O=C(CN1CCOCC1)Nc1nc(-c2ccc(O)cc2)cc(-c2cc3cc(Cl)ccc3nc2Cl)n1 | 500 µg/mL (≈ 980 µM) | 1000 µg/mL (≈ 1960 µM) | 1000 µg/mL (≈ 1960 µM) | 500 µg/mL (≈ 980 µM) | 1000 µg/mL (≈ 1960 µM) | 1000 µg/mL (≈ 1960 µM) | 1000 µg/mL (≈ 1960 µM) |
| COc1ccc(-c2cc(-c3cc4cc(Cl)ccc4nc3Cl)nc(NC(=O)CN3CCOCC3)n2)cc1 | 250 µg/mL (≈ 477 µM) | 500 µg/mL (≈ 953 µM) | 250 µg/mL (≈ 477 µM) | 500 µg/mL (≈ 953 µM) | 500 µg/mL (≈ 953 µM) | 500 µg/mL (≈ 953 µM) | 1000 µg/mL (≈ 1910 µM) |
| O=C(CN1CCOCC1)Nc1nc(-c2ccccc2Cl)cc(-c2cc3cc(Cl)ccc3nc2Cl)n1 | 50 µg/mL (≈ 94.5 µM) | 100 µg/mL (≈ 189 µM) | 250 µg/mL (≈ 473 µM) | 250 µg/mL (≈ 473 µM) | 100 µg/mL (≈ 189 µM) | 25 µg/mL (≈ 47.3 µM) | 500 µg/mL (≈ 945 µM) |
| O=C(CN1CCOCC1)Nc1nc(-c2ccc(Cl)cc2)cc(-c2cc3cc(Cl)ccc3nc2Cl)n1 | 100 µg/mL (≈ 189 µM) | 100 µg/mL (≈ 189 µM) | 25 µg/mL (≈ 47.3 µM) | 250 µg/mL (≈ 473 µM) | 50 µg/mL (≈ 94.5 µM) | 100 µg/mL (≈ 189 µM) | 100 µg/mL (≈ 189 µM) |
| O=C(CN1CCOCC1)Nc1nc(-c2ccccc2F)cc(-c2cc3cc(Cl)ccc3nc2Cl)n1 | 50 µg/mL (≈ 97.6 µM) | 25 µg/mL (≈ 48.8 µM) | 50 µg/mL (≈ 97.6 µM) | 50 µg/mL (≈ 97.6 µM) | 100 µg/mL (≈ 195 µM) | 50 µg/mL (≈ 97.6 µM) | 250 µg/mL (≈ 488 µM) |
| O=C(CN1CCOCC1)Nc1nc(-c2cccc(F)c2)cc(-c2cc3cc(Cl)ccc3nc2Cl)n1 | 100 µg/mL (≈ 195 µM) | 100 µg/mL (≈ 195 µM) | 100 µg/mL (≈ 195 µM) | 250 µg/mL (≈ 488 µM) | 500 µg/mL (≈ 976 µM) | 100 µg/mL (≈ 195 µM) | 1000 µg/mL (≈ 1950 µM) |
| O=C(CN1CCOCC1)Nc1nc(-c2ccc(F)cc2)cc(-c2cc3cc(Cl)ccc3nc2Cl)n1 | 25 µg/mL (≈ 48.8 µM) | 1000 µg/mL (≈ 1950 µM) | 250 µg/mL (≈ 488 µM) | 500 µg/mL (≈ 976 µM) | 100 µg/mL (≈ 195 µM) | 12.5 µg/mL (≈ 24.4 µM) | 500 µg/mL (≈ 976 µM) |
| O=C(CN1CCOCC1)Nc1nc(-c2ccccc2[N+](=O)[O-])cc(-c2cc3cc(Cl)ccc3nc2Cl)n1 | 12.5 µg/mL (≈ 23.2 µM) | 25 µg/mL (≈ 46.3 µM) | 50 µg/mL (≈ 92.7 µM) | 500 µg/mL (≈ 927 µM) | 12.5 µg/mL (≈ 23.2 µM) | 50 µg/mL (≈ 92.7 µM) | 100 µg/mL (≈ 185 µM) |
| O=C(CN1CCOCC1)Nc1nc(-c2cccc([N+](=O)[O-])c2)cc(-c2cc3cc(Cl)ccc3nc2Cl)n1 | 100 µg/mL (≈ 185 µM) | 50 µg/mL (≈ 92.7 µM) | 100 µg/mL (≈ 185 µM) | 50 µg/mL (≈ 92.7 µM) | 100 µg/mL (≈ 185 µM) | 100 µg/mL (≈ 185 µM) | 500 µg/mL (≈ 927 µM) |
| O=C(CN1CCOCC1)Nc1nc(-c2ccc([N+](=O)[O-])cc2)cc(-c2cc3cc(Cl)ccc3nc2Cl)n1 | 250 µg/mL (≈ 463 µM) | 100 µg/mL (≈ 185 µM) | 250 µg/mL (≈ 463 µM) | 100 µg/mL (≈ 185 µM) | 250 µg/mL (≈ 463 µM) | 25 µg/mL (≈ 46.3 µM) | 250 µg/mL (≈ 463 µM) |
| CC1(C)S[C@@H]2[C@H](NC(=O)[C@H](N)c3ccccc3)C(=O)N2[C@H]1C(=O)O [AMPICILLIN] | 100 µg/mL (≈ 286 µM) |  | 100 µg/mL (≈ 286 µM) | 250 µg/mL (≈ 715 µM) | 100 µg/mL (≈ 286 µM) |  |  |
| COC1=CC(=O)C[C@@H](C)[C@]12Oc1c(Cl)c(OC)cc(OC)c1C2=O [GRISEOFULVIN] |  | 100 µg/mL (≈ 283 µM) |  |  |  | 100 µg/mL (≈ 283 µM) | 500 µg/mL (≈ 1420 µM) |
